{"source": "ChEMBL document CHEMBL6087479", "about": "“Discovery of a Potent and Selective GSPT1 Molecular Glue Degrader for the Treatment of Castration-Resistant Prostate Cancer” (J Med Chem, 2025)", "key": {"[1]": {"system": "CWR22R", "assay": "Inhibition of colony formation in human 22Rv1 cells at 6.25 to 25 nM incubated for 14 days by crystal violet staining based assay", "assay_type": "functional, cell-based", "settings": "dose 6.25-25 nM, time 14.0 day"}, "[2]": {"biological_target": "Protein cereblon/Bromodomain-containing protein 4 (Homo sapiens) (UniProt O60885+Q96SW2)", "sequence (Q96SW2 whole entry, looked up, other chains not shown)": "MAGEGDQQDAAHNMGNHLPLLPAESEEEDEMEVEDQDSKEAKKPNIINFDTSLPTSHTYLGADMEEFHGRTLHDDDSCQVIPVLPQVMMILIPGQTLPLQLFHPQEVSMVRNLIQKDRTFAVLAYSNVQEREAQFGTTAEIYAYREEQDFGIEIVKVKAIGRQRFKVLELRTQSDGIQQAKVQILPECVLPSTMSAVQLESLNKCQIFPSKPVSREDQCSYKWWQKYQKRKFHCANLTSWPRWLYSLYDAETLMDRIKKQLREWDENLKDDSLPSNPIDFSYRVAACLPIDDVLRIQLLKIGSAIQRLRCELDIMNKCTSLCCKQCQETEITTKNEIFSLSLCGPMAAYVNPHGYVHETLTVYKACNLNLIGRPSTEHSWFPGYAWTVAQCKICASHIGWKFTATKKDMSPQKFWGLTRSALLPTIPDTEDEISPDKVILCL", "assay": "Molecular glue degradation activity at CRBN/BRD4 in human 22Rv1 cells at 12 to 1000 nM incubated for 6 hrs by Immunoblotting analysis", "assay_type": "cell-based", "settings": "dose 12-1000 nM"}, "[3]": {"biological_target": "Bromodomain-containing protein 4 (Homo sapiens, UniProt O60885)", "assay": "Binding affinity to BRD4 BD1 (unknown origin) assessed as dissociation constant by BLI assay"}, "[4]": {"system": "CWR22R", "assay": "Downregulation of BRD2 protein level in human 22Rv1 cells at 500 nM incubated for 6 hrs by mass spectrometry-based label-free quantitative proteomics analysis", "assay_type": "functional, cell-based"}, "[5]": {"system": "CWR22R", "assay": "Downregulation of BRD4 protein level in human 22Rv1 cells at 500 nM incubated for 6 hrs by mass spectrometry-based label-free quantitative proteomics analysis", "assay_type": "functional, cell-based"}, "[6]": {"system": "CWR22R", "assay": "Downregulation of GSPT1 protein level in human 22Rv1 cells at 500 nM incubated for 6 hrs by mass spectrometry-based label-free quantitative proteomics analysis", "assay_type": "functional, cell-based"}, "[7]": {"system": "CWR22R", "assay": "Downregulation of GSPT1 protein level in human 22Rv1 cells incubated for 6 hrs by Immunoblotting analysis", "assay_type": "functional, cell-based", "settings": "dose 12-1000 nM"}, "[8]": {"system": "CWR22R", "assay": "Downregulation of GSPT1 protein level in human 22Rv1 cells at 300 nM by Immunoblotting analysis", "assay_type": "functional, cell-based", "settings": "time 1-6 hrs"}, "[9]": {"assay": "Downregulation of GSPT1 protein level in human 22Rv1 cells at 12 to 1000 nM incubated for 6 hrs by Immunoblotting analysis", "settings": "22Rv1, 6 h"}, "[10]": {"system": "CWR22R", "assay": "Antiproliferative activity against human 22Rv1 cells assessed as inhibition of cell proliferation by CellTiter-Glo assay"}, "[11]": {"biological_target": "Protein cereblon/Eukaryotic peptide chain release factor GTP-binding subunit ERF3A (Homo sapiens) (UniProt Q96SW2+P15170)", "sequence (P15170 whole entry, looked up)": "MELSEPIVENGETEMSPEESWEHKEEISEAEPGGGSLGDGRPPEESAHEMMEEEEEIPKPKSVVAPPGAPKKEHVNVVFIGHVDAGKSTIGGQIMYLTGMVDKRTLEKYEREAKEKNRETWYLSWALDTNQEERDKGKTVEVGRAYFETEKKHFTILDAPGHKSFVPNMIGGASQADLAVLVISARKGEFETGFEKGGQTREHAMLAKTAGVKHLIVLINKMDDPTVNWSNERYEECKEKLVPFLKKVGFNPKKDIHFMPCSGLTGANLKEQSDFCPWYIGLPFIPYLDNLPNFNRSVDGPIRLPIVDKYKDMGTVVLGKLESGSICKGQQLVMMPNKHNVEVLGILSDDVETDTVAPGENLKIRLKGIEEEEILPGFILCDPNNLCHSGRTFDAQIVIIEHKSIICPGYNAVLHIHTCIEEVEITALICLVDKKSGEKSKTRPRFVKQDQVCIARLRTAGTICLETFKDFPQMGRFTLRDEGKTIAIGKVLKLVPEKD", "sequence (Q96SW2 whole entry, looked up)": "as the sequence (Q96SW2 whole entry, looked up, other chains not shown) above", "assay": "Protac activity at CRBN/GSPT1 in human 22Rv1 cells assessed as GSPT1 degradation at 12 to 1000 nM incubated for 6 hrs by Western blotting analysis", "assay_type": "cell-based", "settings": "dose 12-1000 nM"}, "[12]": {"system": "CWR22R", "assay": "Downregulation of GSPT1 mRNA level in human 22Rv1 cells at 100 to 300 nM incubated for 12 hrs by qRT-PCR analysis", "assay_type": "functional, cell-based", "settings": "dose 100-300 nM"}, "[13]": {"system": "CWR22R", "assay": "Reduction of GSPT1 in siCRBN transfected human 22Rv1 cells at 500 nM incubated for 6 hrs by Western blotting analysis", "assay_type": "functional, cell-based"}, "[14]": {"assay": "Binding affinity to […]/DDB1/N-terminal H6-Avi-tagged CRBN TBD (unknown origin) expressed in BL21 (DE3) cells assessed as dissociation constant by BLI assay", "set-up": "species or system Homo sapiens"}, "[15]": {"biological_target": "Eukaryotic peptide chain release factor GTP-binding subunit ERF3A (Homo sapiens) (UniProt P15170)", "sequence (P15170 whole entry)": "as the sequence (P15170 whole entry, looked up) above", "assay": "Binding affinity to GSPT1 (unknown origin) by BLI assay"}, "[16]": {"system": "CWR22R", "assay": "Antiproliferative activity against siCRBN knockdown human 22Rv1 cells assessed as inhibition of cell growth by Cell-titer Glo luminescent assay", "assay_type": "functional, cell-based"}, "[17]": {"system": "CWR22R", "assay": "Downregulation of BCL2 expression in human 22Rv1 cells incubated for 12 hrs by qRT-PCR analysis", "assay_type": "functional, cell-based"}, "[18]": {"system": "CWR22R", "assay": "Downregulation of CDK2 expression in human 22Rv1 cells incubated for 12 hrs by qRT-PCR analysis", "assay_type": "functional, cell-based"}, "[19]": {"system": "CWR22R", "assay": "Downregulation of E2F3 expression in human 22Rv1 cells incubated for 12 hrs by qRT-PCR analysis", "assay_type": "functional, cell-based"}, "[20]": {"system": "CWR22R", "assay": "Downregulation of EGFR expression in human 22Rv1 cells incubated for 12 hrs by qRT-PCR analysis", "assay_type": "functional, cell-based"}, "[21]": {"system": "CWR22R", "assay": "Downregulation of HSP90B1 expression in human 22Rv1 cells incubated for 12 hrs by qRT-PCR analysis", "assay_type": "functional, cell-based"}, "[22]": {"system": "CWR22R", "assay": "Downregulation of TMPRSS2 expression in human 22Rv1 cells incubated for 12 hrs by qRT-PCR analysis", "assay_type": "functional, cell-based"}, "[23]": {"system": "CWR22R", "assay": "Downregulation of AR-FL mRNA level in human 22Rv1 cells at 500 nM incubated for 12 hrs by qRT-PCR analysis", "assay_type": "functional, cell-based"}, "[24]": {"system": "CWR22R", "assay": "Downregulation of AR-V7 mRNA level in human 22Rv1 cells at 500 nM incubated for 12 hrs by qRT-PCR analysis", "assay_type": "functional, cell-based"}, "[25]": {"system": "CWR22R", "assay": "Downregulation of PSA mRNA level in human 22Rv1 cells at 500 nM incubated for 12 hrs by qRT-PCR analysis", "assay_type": "functional, cell-based"}, "[26]": {"system": "CWR22R", "assay": "Downregulation of c-MYC mRNA level in human 22Rv1 cells at 500 nM incubated for 12 hrs by qRT-PCR analysis", "assay_type": "functional, cell-based"}, "[27]": {"system": "CWR22R", "assay": "Downregulation of AR-FL protein level in human 22Rv1 cells at 12 to 1000 nM incubated for 12 hrs by Immunoblotting analysis", "assay_type": "functional, cell-based", "settings": "dose 12-1000 nM"}, "[28]": {"system": "CWR22R", "assay": "Downregulation of AR-V7 protein level in human 22Rv1 cells at 12 to 1000 nM incubated for 12 hrs by Immunoblotting analysis", "assay_type": "functional, cell-based", "settings": "dose 12-1000 nM"}, "[29]": {"system": "CWR22R", "assay": "Downregulation of PSA protein level in human 22Rv1 cells at 12 to 1000 nM incubated for 12 hrs by Immunoblotting analysis", "assay_type": "functional, cell-based", "settings": "dose 12-1000 nM"}, "[30]": {"system": "CWR22R", "assay": "Downregulation of c-MYC protein level in human 22Rv1 cells at 12 to 1000 nM incubated for 12 hrs by Immunoblotting analysis", "assay_type": "functional, cell-based", "settings": "dose 12-1000 nM"}, "[31]": {"system": "CWR22R", "assay": "Downregulation of BCL2 level in human 22Rv1 cells at 12 to 1000 nM incubated for 12 hrs by Immunoblotting analysis", "assay_type": "functional, cell-based", "settings": "dose 12-1000 nM"}, "[32]": {"system": "CWR22R", "assay": "Downregulation of BCL-XL level in human 22Rv1 cells at 12 to 1000 nM incubated for 12 hrs by Immunoblotting analysis", "assay_type": "functional, cell-based", "settings": "dose 12-1000 nM"}, "[33]": {"system": "CWR22R", "assay": "Downregulation of MCL-1 level in human 22Rv1 cells at 12 to 1000 nM incubated for 12 hrs by Immunoblotting analysis", "assay_type": "functional, cell-based", "settings": "dose 12-1000 nM"}, "[34]": {"system": "CWR22R", "assay": "Antitumor activity against human 22Rv1 cells xenografted in NOD-SCID mouse assessed as tumor growth inhibition at 10 mg/kg, ip administered once daily for 21 days relative to control", "assay_type": "functional", "settings": "22Rv1, 504 h, time 21 day, read-out: TGI"}, "[35]": {"system": "CWR22R", "assay": "Antitumor activity against human 22Rv1 cells xenografted in NOD-SCID mouse assessed as tumor growth inhibition at 20 mg/kg, ip administered once daily for 21 days relative to control", "assay_type": "functional", "settings": "22Rv1, 504 h, time 21 day, read-out: TGI"}, "[36]": {"assay": "Toxicity in wild-type NOD-SCID mouse assessed as tolerability administered intraperitoneally once daily for 21 days", "settings": "in vivo, ip, 504 h, time 21 day"}, "[37]": {"biological_target": "Eukaryotic peptide chain release factor GTP-binding subunit ERF3A (Homo sapiens) (UniProt P15170)", "settings": "dose 200.0 µM, time 45.0 min"}, "[38]": {"system": "LNCaP", "assay": "cells", "settings": "Homo sapiens, 96 h", "description": "Antiproliferative activity against human LNCaP cells assessed as inhibition of cell proliferation incubated for 96 hrs by CellTiter-Glo assay"}, "[39]": {"system": "CWR22R", "assay": "cells", "settings": "Homo sapiens, 22Rv1, 96 h", "description": "Antiproliferative activity against human 22Rv1 cells assessed as inhibition of cell proliferation incubated for 96 hrs by CellTiter-Glo assay"}, "[40]": {"system": "LNCaP C4-2B", "assay": "cells", "settings": "Homo sapiens, 96 h", "description": "Antiproliferative activity against human LNCaP C4-2B cells assessed as inhibition of cell proliferation incubated for 96 hrs by CellTiter-Glo assay"}}, "note": "The source made the active and inactive calls. No cut-off for these calls is given here.", "data": [{"smiles": "COc1ccc(Br)cc1S(=O)(=O)Nc1cc2c(C)noc2cc1OCC(=O)NCCCCCNc1cccc2c1C(=O)N(C1CCC(=O)NC1=O)C2=O", "note": "(stereo not given)", "values": [{"measurement": "inhibition", "setting": "[1]", "value": "Active"}, {"measurement": "Activity", "setting": "[2]", "value": "inactive"}, {"measurement": "Kd", "setting": "[3]", "value": 38000, "unit": "nM"}, {"measurement": "Activity", "setting": "[4]", "value": "inactive"}, {"measurement": "Activity", "setting": "[5]", "value": "inactive"}, {"measurement": "Activity", "setting": "[6]", "value": "Active"}, {"measurement": "Activity", "setting": "[7]", "value": "Dose-dependent-effect"}, {"measurement": "Activity", "setting": "[8]", "value": "Time-dependent-effect"}, {"measurement": "DC50", "setting": "[9]", "value": 19, "unit": "nM"}, {"measurement": "IC50", "setting": "[10]", "value": 7, "unit": "nM"}, {"measurement": "Activity", "setting": "[11]", "value": "Active"}, {"measurement": "Activity", "setting": "[12]", "value": "inactive"}, {"measurement": "Activity", "setting": "[13]", "value": "inactive"}, {"measurement": "Kd", "setting": "[14]", "value": 930, "unit": "nM"}, {"measurement": "Activity", "setting": "[15]", "value": "inactive"}, {"measurement": "Activity", "setting": "[16]", "value": "inactive"}, {"measurement": "Activity", "setting": "[17]", "value": "Active"}, {"measurement": "Activity", "setting": "[18]", "value": "Active"}, {"measurement": "Activity", "setting": "[19]", "value": "Active"}, {"measurement": "Activity", "setting": "[20]", "value": "Active"}, {"measurement": "Activity", "setting": "[21]", "value": "Active"}, {"measurement": "Activity", "setting": "[22]", "value": "Active"}, {"measurement": "Activity", "setting": "[23]", "value": "Active"}, {"measurement": "Activity", "setting": "[24]", "value": "Active"}, {"measurement": "Activity", "setting": "[25]", "value": "Active"}, {"measurement": "Activity", "setting": "[26]", "value": "Active"}, {"measurement": "Activity", "setting": "[27]", "value": "Active"}, {"measurement": "Activity", "setting": "[28]", "value": "Active"}, {"measurement": "Activity", "setting": "[29]", "value": "Active"}, {"measurement": "Activity", "setting": "[30]", "value": "Active"}, {"measurement": "Activity", "setting": "[31]", "value": "Active"}, {"measurement": "Activity", "setting": "[32]", "value": "Active"}, {"measurement": "Activity", "setting": "[33]", "value": "Active"}, {"measurement": "inhibition in vivo at 10 mg/kg", "setting": "[34]", "value": 44, "unit": "%"}, {"measurement": "inhibition in vivo at 20 mg/kg", "setting": "[35]", "value": 55, "unit": "%"}, {"measurement": "Activity", "setting": "[36]", "value": "Non-toxic"}, {"measurement": "deltaTm", "setting": "[37]", "value": "inactive"}, {"measurement": "IC50", "setting": "[38]", "value": 34, "unit": "nM"}, {"measurement": "IC50", "setting": "[39]", "value": 7, "unit": "nM"}, {"measurement": "IC50", "setting": "[40]", "value": 374, "unit": "nM"}]}]}
